Assay results reported in US20060217456A1, “Non-toxic coating composition, methods of use thereof and articles protected from attachment of biofouling organisms” (priority 2003, published 2006).
In brackets after ≈: the same amount, converted by molar mass. Where two headings read alike, the source gives them in different places.

Legend:
[1] = tested on: barnacle, Balanus amphitrite communis; assay: Marine paint panel immersion test, barnacles attached to painted iron panels; details: cuprous oxide marine paint on iron panels, submerged 78 weeks, Bitac Cove; control = 100
Protocol: A floating platform was constructed using layers of bamboo and styrofoam floats. The platform was designed with holders to accommodate test panels measuring 4 inches×12 inches×0.25 inches (1 inch=2.54 cm). A first experimental paint was prepared, containing a biocidally effective amount of cuprous oxide and no other biocide which was used as the control. This composition consisted of 40 parts by weight of cuprous oxide, 10 parts by weight of iron oxide red, 5 parts by weight of xylene, 10 parts by weight of butyl alcohol, 5 parts by weight polyamide resin, 6 parts by weight of plasticizer. To this composition was added a combination of 0.5% by weight of rac-isopulegol, 0.25% by weight of (−)-menthol and 0.25% by weight of 1-menthol propyleneglycol carbonate (Composition A). A second paint composition was prepared from the same marine paint vehicle containing cuprous oxide, to which was added 2% by weight of (−)-menthol (Composition B). A third formulation was made from the same cuprous oxide-containing marine paint vehicle, to which was added 2% by weight of rac-isopulegol (Composition C). A fourth formulation was made from the same cuprous oxide-containing marine paint vehicle, to which was added 2% by weight of 1-menthol propyleneglycol carbonate (Composition D). Solid iron panels having the above-mentioned dimensions were painted with the paint formulations thus prepared, placed in the holders in the floating platform and submerged continuously near the center of Bitac Cove in San Dionisio Bay (Philippines) for a period of 78 weeks. The panels were examined for a few minutes every three months and immediately resubmerged after photography. After 78 weeks, the panels were removed and inspected. The numbers of barnacles attached to the panels were counted. The major fouling organisms included the barnacle, Balanus amphitrite communis, and the rock oyster, Crossostrea cuculata.

[2] = tested on: cyprid stage larvae of the barnacle, Balanus amphitrite Darwin; assay: Barnacle settlement assay (cyprid larvae in seawater dishes); format: in vivo; details: single compound, 28° C., 9 hours; for EC50: Amphibalanus amphitrite, read-out: EC50 (concentration inhibiting settlement of 50% of cyprid larvae)
Text: Adults of the barnacle, Balanus amphitrite Darwin, were collected from the Sacred Heart Marine Research Center at St. Mary's College in Tuticorin, India. The barnacles were crushed and the nauplius stage larvae were collected for culture to the cyprid stage following the method of Rittschof et al., J. Exp. Mar. Biol. Ecol., 82:131-146 (1984). The cyprid is the stage at which the barnacle larva is competent to attach to surfaces. Upon attachment to a surface, the larva then undergoes metamorphosis into a barnacle.
Barnacle settlement assays were undertaken using the method described previously by Rittschof et al., J. Chem. Ecol., 11: 551-563 (1985). Briefly, Falcon 50×9 mm plastic petri dishes were filled with 5 ml of filtered seawater at salinity of 33-35 parts per thousand (ppt) and into which 3-day old cyprid stage larvae were added. Menthol and/or isopulegol and/or compounds listed under ii) a) to f), above, were introduced at various concentrations into the dishes containing seawater. Controls were represented by those dishes in which no test compound were added. After incubation at 28° C. for 9 hours, the dishes were examined under a dissecting microscope to determine if there was any mortality. The larvae were then killed with 10% formalin and the number of attached and unattached larvae were counted. Settlement data were expressed as the percentage of the larvae attached to the bottom of the dish.
The settlement assay was used to determine the effective concentration of a number of different compounds listed under ii) a) to f), above. The effective concentration (EC50) is that concentration which inhibited the settlement of fifty percent (50%) of the cyprid stage of the barnacle larvae present in a test sample. The racemic […] compounds are denoted with the prefix rac-.

[3] = tested on: cyprid stage larvae of the barnacle, Balanus amphitrite Darwin; details: single compound; 28° C., 9 hours; see WO 01/95718; cited from earlier work

Molecule | EC50 (concentration inhibiting settlement of 50% of cyprid larvae) [2] [µg/mL] | EC50 (concentration inhibiting settlement of 50% of cyprid larvae) [3] | further results
C=C(C)[C@@H]1CC[C@@H](C)C[C@H]1O (racemic) [rac-isopulegol] | 0.029 | – | % Settlement [1]: 16.1%
CC(O)C(=O)O[C@@H]1C[C@H](C)CC[C@H]1C(C)C (mixture of isomers) [I-menthyl lactate, 1-menthyllactate] | – | – | EC50 [2]: 0.002 µg/mL
C=C(C)[C@H]1CC=C(C)CC1 [d-limonene, reference compound] | 0.029 | – | –
CC1CC[C@H](C(C)C)[C@@H](O)C1 (stereo partly drawn) [1S, 2R, 5S-(+)-menthol, reference compound] | – | 0.1 (see WO 01/95718) mg/ml | –
CC1CCC(C(C)C)C(O)C1 (stereo not drawn) [1R, 2S, 5R-(−)-menthol (=l-menthol), 1R, 2S, 5R-(−)-menthol] | – | 4 * 10^−3 (see WO 01/95718) mg/ml | % Settlement [1]: 12.2%
(−)-isopulegol | – | 8.8 * 10^−5 (see WO 01/95718) mg/ml | –
CC1CCC(C(C)C)C(O)C1 (racemic) [rac-menthol] | – | 0.1 (see WO 01/95718) mg/ml | –
CC(C)[C@@H]1CC[C@@H](C)C[C@@]12OCC(CO)O2 (stereo partly drawn) [menthone glycerin acetal] | – | – | EC50 [2]: 0.00052 µg/mL (≈ 0.00228 µM)
COC1CC(C)CCC1C(C)C (stereo not drawn) [menthylmethylether, reference compound] | – | – | EC50 [2]: 0.11 µg/mL (≈ 0.646 µM)
CC1CCC(C(C)C)C2(C1)OCC(CO)O2 (racemic) [rac-menthone glycerin acetal] | 0.049 | – | –
l-menthyl propyleneglycol carbonate | 0.0022 | – | % Settlement [1]: 23.4%
(−)-menthone [reference compound] | – | 0.001 (see WO 01/95718) mg/ml | –
